Our source for the IC50 values is patent publication US20210269434A1, “TRICYCLIC COMPOUNDS AS INHIBITORS OF KRAS” (Incyte Corporation, priority 2020, published 2021).

The target of the experiment is KRAS G12D (Homo sapiens, UniProt P01116, G12D). Put plainly: GDP-GTP exchange assay (KRAS_G12D exchange). It counts as biochemical. Conditions: bodipy loaded KRAS G12D 2.5 nM; 4 hours incubation after GppNHp-SOS1; read-out: G12D_exchange. As for the experimental part: Example A. GDP-GTP Exchange Assay
KRAS G12D, sequence (P01116 1-188 isoform P01116-2 G12D): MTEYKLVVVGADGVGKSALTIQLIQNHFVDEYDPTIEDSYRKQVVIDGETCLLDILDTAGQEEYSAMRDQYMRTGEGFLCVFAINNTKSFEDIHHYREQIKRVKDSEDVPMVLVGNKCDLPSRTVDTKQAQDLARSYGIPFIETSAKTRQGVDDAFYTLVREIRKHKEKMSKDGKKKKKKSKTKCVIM
The inhibitor potency of the exemplified compounds was determined in a fluorescence based guanine nucleotide exchange assay, which measures the exchange of bodipy-GDP (fluorescently labeled GDP) for GppNHp (Non-hydrolyzable GTP analog) to generate the active state of KRAS in the presence of SOS1 (guanine nucleotide exchange factor). Inhibitors were serially diluted in DMSO and a volume of 0.1 μL was transferred to the wells of a black low volume 384-well plate. 5 μL/well volume of bodipy-loaded KRAS G12C diluted to 5 nM in assay buffer (25 mM Hepes pH 7.5, 50 mM NaCl, 10 mM MgCl2 and 0.01% Brij-35) was added to the plate and pre-incubated with inhibitor for 2 hours at ambient temperature. Appropriate controls (enzyme with no inhibitor or with a G12C inhibitor (AMG-510)) were included on the plate. The exchange was initiated by the addition of a 5 μL/well volume containing 1 mM GppNHp and 300 nM SOS1 in assay buffer. The 10 μL/well reaction concentration of the bodipy-loaded KRAS G12C, GppNHp, and SOS1 were 2.5 nM, 500 uM, and 150 nM, respectively. The reaction plates were incubated at ambient temperature for 2 hours, a time estimated for complete GDP-GTP exchange in the absence of inhibitor. For the KRAS G12D and G12V mutants, similar guanine nucleotide exchange assays were used with 2.5 nM as final concentration for the bodipy loaded KRAS proteins and with 4 hours and 3 hours incubation after adding GppNHp-SOS1 mixture for G12D and G12V respectively. A cyclic peptide described to selectively bind G12D mutant (Sakamoto et al., BBRC 484.3 (2017), 605-611) or internal compounds with confirmed binding were used as positive controls in the assay plates. Fluorescence intensities were measured on a PheraStar plate reader instrument (BMG Labtech) with excitation at 485 nm and emission at 520 nm.
Either GraphPad prism or XLfit was used to analyze the data. The IC50 values were derived by fitting the data to a four parameter logistic equation producing a sigmoidal dose-response curve with a variable Hill coefficient. Prism equation: Y=Bottom+(Top−Bottom)/(1+10^((Log lC50−X)*Hill slope)); XLfit equation: Y=(A+((B−A)/(1+((X/C)^D)))) where X is the logarithm of inhibitor concentration and Y is the response.

Molecules are shown by their SMILES. pIC50: −log10 of the molar value.

Regarding `CCc1nc2c(N3CC(N(C)C)C3)nc3c(F)c(-c4cc(O)cc5ccc(F)cc45)c(CCC#N)cc3c2n1C1C2CNC1C2` (single isomer, unassigned) [Example 292b, 3-(1-((endo)-2-azabicyclo[2.1.1]hexan-5-yl)-4-(3-(dimethylamino)azetidin-1-yl)-2-ethyl-6-fluoro-7-(7-fluoro-3-hydroxynaphthalen-1-yl)-1H-imidazo[4,5-c]quinolin-8-yl)propanenitrile], the pIC50 was ≥ 7.00. With `CNCCc1nc2c(N3CC(N(C)C)C3)nc3c(F)c(-c4cc(O)cc5ccccc45)c(-c4cn[nH]c4)cc3c2n1C1C2CNC1C2` (single isomer, unassigned) [Example 295b, 4-(1-((endo)-2-azabicyclo[2.1.1]hexan-5-yl)-4-(3-(dimethylamino)azetidin-1-yl)-6-fluoro-2-(2-(methylamino)ethyl)-8-(1H-pyrazol-4-yl)-1H-imidazo[4,5-c]quinolin-7-yl)naphthalen-2-ol], the pIC50 is 6.00 to 7.00. In the case of `CCc1nc2c(N3CC(N(C)C)C3)nc3c(F)c(-c4cc(O)cc5ccccc45)c(CCC#N)cc3c2n1C1C2CC1N(Cc1ccc[nH]1)C2` (single isomer, unassigned) [Example 296b, 3-(1-((endo)-2-((1H-pyrrol-2-yl)methyl)-2-azabicyclo[2.1.1]hexan-5-yl)-4-(3-(dimethylamino)azetidin-1-yl)-2-ethyl-6-fluoro-7-(3-hydroxynaphthalen-1-yl)-1H-imidazo[4,5-c]quinolin-8-yl)propanenitrile], the pIC50 is ≥ 7.00.

Take `CN(C)C1CN(c2nc3c(F)c(-c4cc(O)cc5ccccc45)c(CCC#N)cc3c3c2nc(CN2CCOCC2=O)n3C2C3CNC2C3)C1` (single isomer, unassigned) [Example 300a, 3-(1-((endo)-2-azabicyclo[2.1.1]hexan-5-yl)-4-(3-(dimethylamino)azetidin-1-yl)-6-fluoro-7-(3-hydroxynaphthalen-1-yl)-2-((3-oxomorpholino)methyl)-1H-imidazo[4,5-c]quinolin-8-yl)propanenitrile]: the pIC50 was ≥ 7.00. As to `CN(C)C1CN(c2nc3c(F)c(-c4cc(O)cc5ccccc45)c(CCC#N)cc3c3c2nc(-c2csc(N4CCNCC4)n2)n3C2C3CNC2C3)C1` (single isomer, unassigned) [Example 302a, 3-(1-((endo)-2-azabicyclo[2.1.1]hexan-5-yl)-4-(3-(dimethylamino)azetidin-1-yl)-6-fluoro-7-(3-hydroxynaphthalen-1-yl)-2-(2-(piperazin-1-yl)thiazol-4-yl)-1H-imidazo[4,5-c]quinolin-8-yl)propanenitrile], the pIC50 is ≥ 7.00. As for `Cc1nc2c(N3CC(N(C)C)C3)nc3c(F)c(-c4cc(O)cc5ccccc45)c(Cl)cc3c2n1[C@H]1[C@H]2CN[C@@H]1C2` [Example 15, 4-(1-((endo)-2-azabicyclo[2.1.1]hexan-5-yl)-8-chloro-4-(3-(dimethylamino)-azetidin-1-yl)-6-fluoro-2-methyl-1H-imidazo[4,5-c]quinolin-7-yl)naphthalen-2-ol], the pIC50 is 5.30 to 6.00.

Regarding `Cc1ccc2cc(O)cc(-c3c(Cl)cc4c(nc(N5CC(N(C)C)C5)c5ncn([C@H]6[C@H]7CN[C@@H]6C7)c54)c3F)c2c1` [Example 24, 4-(1-((endo)-2-azabicyclo[2.1.1]hexan-5-yl)-8-chloro-4-(3-(dimethylamino)-azetidin-1-yl)-6-fluoro-1H-imidazo[4,5-c]quinolin-7-yl)-6-methylnaphthalen-2-ol], the pIC50 is 5.30 to 6.00. Regarding `CN(C)C1CN(c2nc3c(F)c(-c4cc(O)cc5ccccc45)c(Cl)cc3c3c2nc(CCN)n3[C@H]2[C@H]3CN[C@@H]2C3)C1` [Example 76, 4-(2-(2-aminoethyl)-1-((endo)-2-azabicyclo[2.1.1]hexan-5-yl)-8-chloro-4-(3-(dimethylamino)azetidin-1-yl)-6-fluoro-1H-imidazo[4,5-c]quinolin-7-yl)naphthalen-2-ol], the pIC50 was 6.00 to 7.00.

As for `CN(C)C1CN(c2nc3c(F)c(-c4cc(O)cc5ccccc45)c(Cl)cc3c3c2nc(-c2cn(C)cn2)n3[C@H]2[C@H]3CN[C@@H]2C3)C1` [Example 78, 4-(1-((endo)-2-azabicyclo[2.1.1]hexan-5-yl)-8-chloro-4-(3-(dimethylamino)-azetidin-1-yl)-6-fluoro-2-(1-methyl-1H-imidazol-4-yl)-1H-imidazo[4,5-c]quinolin-7-yl)naphthalen-2-ol], the pIC50 is 6.00 to 7.00. On to `CN(C)C(=O)CCc1nc2c(N3CC(N(C)C)C3)nc3c(Oc4ccccc4)c(-c4cc(O)cc5ccccc45)c(CCC#N)cc3c2n1C1C2CNC1C2` (stereo not drawn) [Example 293, 3-(1-((endo)-2-azabicyclo[2.1.1]hexan-5-yl)-8-(2-cyanoethyl)-4-(3-(dimethylamino)azetidin-1-yl)-7-(3-hydroxynaphthalen-1-yl)-6-phenoxy-1H-imidazo[4,5-c]quinolin-2-yl)-N,N-dimethylpropanamide], for which the pIC50 is 6.00 to 7.00. The value for `CNC(=O)c1cc(-c2nc3c(F)c(-c4cc(O)cc5ccccc45)c(CCC#N)cc3c3c2nc(CCC(=O)N(C)C)n3C2C3CNC2C3)ccc1F` (stereo not drawn) [Example 297, 5-(1-((endo)-2-azabicyclo[2.1.1]hexan-5-yl)-8-(2-cyanoethyl)-2-(3-(dimethylamino)-3-oxopropyl)-6-fluoro-7-(3-hydroxynaphthalen-1-yl)-1H-imidazo[4,5-c]quinolin-4-yl)-2-fluoro-N-methylbenzamide] was ≥ 7.00; that for `CN(C)C(=O)CCc1nc2c(-c3ccc(=O)n(C)c3)nc3c(F)c(-c4cc(O)cc5ccccc45)c(CCC#N)cc3c2n1C1C2CNC1C2` (stereo not drawn) [Example 298, 3-(1-((endo)-2-azabicyclo[2.1.1]hexan-5-yl)-8-(2-cyanoethyl)-6-fluoro-7-(3-hydroxynaphthalen-1-yl)-4-(1-methyl-6-oxo-1,6-dihydropyridin-3-yl)-1H-imidazo[4,5-c]quinolin-2-yl)-N,N-dimethylpropanamide] was ≥ 7.00; that for `CN(C)C(=O)CCc1nc2c(N3CC(N(C)C)C3)nc3c(F)c(-c4cc(O)cc5ccccc45)c(Cc4ccccc4C#N)cc3c2n1C1C2CNC1C2` (stereo not drawn) [Example 299, 3-(1-((endo)-2-azabicyclo[2.1.1]hexan-5-yl)-8-(2-cyanobenzyl)-4-(3-(dimethylamino)azetidin-1-yl)-6-fluoro-7-(3-hydroxynaphthalen-1-yl)-1H-imidazo[4,5-c]quinolin-2-yl)-N,N-dimethylpropanamide] was ≥ 7.00.

Turning to `CN(Cc1ccccn1)C(=O)CCc1nc2c(N3CC(N(C)C)C3)nc3c(F)c(-c4cc(O)cc5ccccc45)c(CCC#N)cc3c2n1C1C2CNC1C2` (stereo not drawn) [Example 301a, 3-(1-((endo)-2-azabicyclo[2.1.1]hexan-5-yl)-8-(2-cyanoethyl)-4-(3-(dimethylamino)azetidin-1-yl)-6-fluoro-7-(3-hydroxynaphthalen-1-yl)-1H-imidazo[4,5-c]quinolin-2-yl)-N-methyl-N-(pyridin-2-ylmethyl)propanamide], the pIC50 was ≥ 7.00.
